Laboratory results: US4140785A, “N-(benzothienopyrazol)amide antirhinoviral agents” (E. I. Du Pont de Nemours and Company, priority 1978, dated 1979)
Converted amounts (≈) assume the structure as drawn. Read-outs that look alike come from different tables or passages of the source.

Tests used:
Rhinovirus type 15 = assay: Plaque inhibition in HeLa cells, rhinovirus type 15; conditions: for Plaque counts per plate: type 15, untreated 145; for MIC: Enterovirus
rhinovirus = assay: In vitro activity against rhinovirus strains (overall); format: cell-based; conditions: preferred compounds
Rhinovirus type 3 = assay: Plaque inhibition in HeLa cells, rhinovirus type 3; conditions: for Plaque counts per plate: type 3, untreated 170; for MIC: Enterovirus
Rhinovirus type 51 = assay: Plaque inhibition in HeLa cells, rhinovirus type 51; conditions: for Plaque counts per plate: type 51, untreated 118; for MIC: Enterovirus
Rhinovirus type 1A = assay: Plaque inhibition in HeLa cells, rhinovirus type 1A; conditions: for Plaque counts per plate: type 1A, untreated 211; for MIC: Enterovirus
Rhinovirus type 14 = assay: Plaque inhibition in HeLa cells, rhinovirus type 14; conditions: for Plaque counts per plate: type 14, untreated 194; for MIC: Enterovirus
Rhinovirus 998 = assay: Plaque inhibition in HeLa cells, rhinovirus 998; conditions: for Plaque counts per plate: 998, untreated 190; for MIC: Enterovirus
Rhinovirus 1492 = assay: Plaque inhibition in HeLa cells, rhinovirus 1492; conditions: for Plaque counts per plate: 1492, untreated 255; for MIC: Enterovirus
Rhinovirus type 39 = assay: Plaque inhibition in HeLa cells, rhinovirus type 39; conditions: for Plaque counts per plate: type 39, untreated 112; for MIC: Enterovirus
[1] = tested on: influenza A virus strains; conditions: prophylaxis and symptomatic treatment; cited from earlier work
Rhinovirus 1662 = assay: Plaque inhibition in HeLa cells, rhinovirus 1662; conditions: Enterovirus, read-out: Minimum Inhibitory Concentration (MIC)
Rhinovirus type 41 = assay: Plaque inhibition in HeLa cells, rhinovirus type 41; conditions: Enterovirus, read-out: Minimum Inhibitory Concentration (MIC)
Rhinovirus type 2 = assay: Plaque inhibition in HeLa cells, rhinovirus type 2; conditions: Enterovirus, read-out: Minimum Inhibitory Concentration (MIC)
Rhinovirus type 1b = assay: Plaque inhibition in HeLa cells, rhinovirus type 1B; conditions: Enterovirus, read-out: Minimum Inhibitory Concentration (MIC)
Rhinovirus type 13 = assay: Plaque inhibition in HeLa cells, rhinovirus type 13; conditions: Enterovirus, read-out: Minimum Inhibitory Concentration (MIC)
Rhinovirus 1425 = assay: Plaque inhibition in HeLa cells, rhinovirus 1425; conditions: Enterovirus, read-out: Minimum Inhibitory Concentration (MIC)
Rhinovirus type 5 = assay: Plaque inhibition in HeLa cells, rhinovirus type 5; conditions: Enterovirus, read-out: Minimum Inhibitory Concentration (MIC)
Rhinovirus 6579 = assay: Plaque inhibition in HeLa cells, rhinovirus 6579; conditions: Enterovirus, read-out: Minimum Inhibitory Concentration (MIC)
Rhinovirus 4005 = assay: Plaque inhibition in HeLa cells, rhinovirus 4005; conditions: Enterovirus, read-out: Minimum Inhibitory Concentration (MIC)
herpes simplex keratitis = conditions: topical treatment; cited from earlier work
smallpox = conditions: cited from earlier work
[2] = read-out: Minimum Inhibitory Concentration (MIC)

CCC(CC)(CC)C(=O)Nc1nn(C)c2c1sc1ccccc12
Plaque counts per plate (Rhinovirus type 15; 0.1 μg/ml): 61 Plaque counts per plate
Plaque counts per plate (Rhinovirus type 15; 0.5 μg/ml): 0 Plaque counts per plate
Plaque counts per plate (Rhinovirus type 15; 1.0 μg/ml): 0 Plaque counts per plate
Plaque counts per plate (Rhinovirus type 15; 2.0 μg/ml): 0 Plaque counts per plate
MIC (Rhinovirus type 15): 0.5 µg/mL (≈ 1.52 µM)
Level of antirhinovirus activity (rhinovirus): high level of antirhinovirus activity
Plaque counts per plate (Rhinovirus type 3; 0.1 μg/ml): 119 Plaque counts per plate
Plaque counts per plate (Rhinovirus type 3; 0.5 μg/ml): 0 Plaque counts per plate
Plaque counts per plate (Rhinovirus type 3; 1.0 μg/ml): 0 Plaque counts per plate
Plaque counts per plate (Rhinovirus type 3; 2.0 μg/ml): 0 Plaque counts per plate
MIC (Rhinovirus type 3): 0.5 µg/mL (≈ 1.52 µM)
Plaque counts per plate (Rhinovirus type 51; 0.1 μg/ml): 211 Plaque counts per plate
Plaque counts per plate (Rhinovirus type 51; 0.5 μg/ml): 28 Plaque counts per plate
Plaque counts per plate (Rhinovirus type 51; 1.0 μg/ml): 0 Plaque counts per plate
Plaque counts per plate (Rhinovirus type 51; 2.0 μg/ml): 0 Plaque counts per plate
MIC (Rhinovirus type 51): 1 µg/mL (≈ 3.04 µM)
Plaque counts per plate (Rhinovirus type 1A; 0.1 μg/ml): 153 Plaque counts per plate
Plaque counts per plate (Rhinovirus type 1A; 0.5 μg/ml): 60 Plaque counts per plate
Plaque counts per plate (Rhinovirus type 1A; 1.0 μg/ml): 4 Plaque counts per plate
Plaque counts per plate (Rhinovirus type 1A; 2.0 μg/ml): 0 Plaque counts per plate
MIC (Rhinovirus type 1A): 2 µg/mL (≈ 6.07 µM)
Plaque counts per plate (Rhinovirus type 14; 0.1 μg/ml): 125 Plaque counts per plate
Plaque counts per plate (Rhinovirus type 14; 0.5 μg/ml): 20 Plaque counts per plate
Plaque counts per plate (Rhinovirus type 14; 1.0 μg/ml): 0 Plaque counts per plate
Plaque counts per plate (Rhinovirus type 14; 2.0 μg/ml): 0 Plaque counts per plate
MIC (Rhinovirus type 14): 1 µg/mL (≈ 3.04 µM)
Plaque counts per plate (Rhinovirus 998; 0.1 μg/ml): 103 Plaque counts per plate
Plaque counts per plate (Rhinovirus 998; 0.5 μg/ml): 0 Plaque counts per plate
Plaque counts per plate (Rhinovirus 998; 1.0 μg/ml): 0 Plaque counts per plate
Plaque counts per plate (Rhinovirus 998; 2.0 μg/ml): 0 Plaque counts per plate
MIC (Rhinovirus 998): 0.5 µg/mL (≈ 1.52 µM)
Plaque counts per plate (Rhinovirus 1492; 0.1 μg/ml): 140 Plaque counts per plate
Plaque counts per plate (Rhinovirus 1492; 0.5 μg/ml): 12 Plaque counts per plate
Plaque counts per plate (Rhinovirus 1492; 1.0 μg/ml): 0 Plaque counts per plate
Plaque counts per plate (Rhinovirus 1492; 2.0 μg/ml): 0 Plaque counts per plate
MIC (Rhinovirus 1492): 1 µg/mL (≈ 3.04 µM)
Plaque counts per plate (Rhinovirus type 39; 0.1 μg/ml): 65 Plaque counts per plate
Plaque counts per plate (Rhinovirus type 39; 0.5 μg/ml): 4 Plaque counts per plate
Plaque counts per plate (Rhinovirus type 39; 1.0 μg/ml): 0 Plaque counts per plate
Plaque counts per plate (Rhinovirus type 39; 2.0 μg/ml): 0 Plaque counts per plate
MIC (Rhinovirus type 39): 1 µg/mL (≈ 3.04 µM)

Cl.NC12CC3CC(CC(C3)C1)C2 [1-aminoadamantane hydrochloride]
Effectiveness against illness caused by influenza A virus [1]: effective for the prophylaxis and symptomatic treatment of illness caused by influenza A virus strains

Cn1nc(NC(=O)C(C)(C)C)c2sc3ccccc3c21 [2,2-dimethyl-N-(1-methyl-1H-(1)benzothieno[3,2-c]pyrazol-3-yl)propanamide]
Level of antirhinovirus activity (rhinovirus): high level of antirhinovirus activity

Cn1nc(NC(=O)CC2CCCC2)c2sc3ccccc3c21 [Example 62]
MIC (Rhinovirus 1662): 8 µg/mL (≈ 25.5 µM)
MIC (Rhinovirus type 41): 2 µg/mL (≈ 6.38 µM)
MIC (Rhinovirus type 2): 2 µg/mL (≈ 6.38 µM)
MIC (Rhinovirus type 1b): 2 µg/mL (≈ 6.38 µM)
MIC (Rhinovirus type 13): 2 µg/mL (≈ 6.38 µM)
MIC (Rhinovirus 1425): 2 µg/mL (≈ 6.38 µM)
MIC (Rhinovirus type 15; [2]): 5 µg/mL (≈ 16 µM)
MIC (Rhinovirus type 5): 2 µg/mL (≈ 6.38 µM)
MIC (Rhinovirus type 3; [2]): 4 µg/mL (≈ 12.8 µM)
MIC (Rhinovirus type 51; [2]): 8 µg/mL (≈ 25.5 µM)
MIC (Rhinovirus 6579): 2 µg/mL (≈ 6.38 µM)
MIC (Rhinovirus type 1A; [2]): 6 µg/mL (≈ 19.1 µM)
MIC (Rhinovirus type 14; [2]): 6 µg/mL (≈ 19.1 µM)
MIC (Rhinovirus 998; [2]): 2 µg/mL (≈ 6.38 µM)
MIC (Rhinovirus 1492; [2]): 2 µg/mL (≈ 6.38 µM)
MIC (Rhinovirus type 39; [2]): 2 µg/mL (≈ 6.38 µM)
MIC (Rhinovirus 4005): 2 µg/mL (≈ 6.38 µM)

CCC(CC)C(=O)Nc1nn(C)c2c1sc1ccccc12 [Example 63, 2-ethyl-N-(1-methyl-1H-(1)benzothieno[3,2-c]pyrazol-3-yl)butanamide]
MIC (Rhinovirus 1662): 1 µg/mL (≈ 3.32 µM)
MIC (Rhinovirus type 41): 2 µg/mL (≈ 6.64 µM)
MIC (Rhinovirus type 2): 2 µg/mL (≈ 6.64 µM)
MIC (Rhinovirus type 1b): 2 µg/mL (≈ 6.64 µM)
MIC (Rhinovirus type 13): 2 µg/mL (≈ 6.64 µM)
MIC (Rhinovirus 1425): 2 µg/mL (≈ 6.64 µM)
MIC (Rhinovirus type 15; [2]): 0.5 µg/mL (≈ 1.66 µM)
MIC (Rhinovirus type 5): 2 µg/mL (≈ 6.64 µM)
Level of antirhinovirus activity (rhinovirus): high level of antirhinovirus activity
MIC (Rhinovirus type 3; [2]): 0.5 µg/mL (≈ 1.66 µM)
MIC (Rhinovirus type 51; [2]): 1 µg/mL (≈ 3.32 µM)
MIC (Rhinovirus 6579): 2 µg/mL (≈ 6.64 µM)
MIC (Rhinovirus type 1A; [2]): 1 µg/mL (≈ 3.32 µM)
MIC (Rhinovirus type 14; [2]): 1 µg/mL (≈ 3.32 µM)
MIC (Rhinovirus 998; [2]): 1 µg/mL (≈ 3.32 µM)
MIC (Rhinovirus 1492; [2]): 1 µg/mL (≈ 3.32 µM)
MIC (Rhinovirus type 39; [2]): 0.5 µg/mL (≈ 1.66 µM)
MIC (Rhinovirus 4005): 2 µg/mL (≈ 6.64 µM)

CC(C)CC(=O)Nc1nn(C)c2c1sc1ccccc12 [Example 64]
MIC (Rhinovirus 1662): 2 µg/mL (≈ 6.96 µM)
MIC (Rhinovirus type 41): 2 µg/mL (≈ 6.96 µM)
MIC (Rhinovirus type 2): 2 µg/mL (≈ 6.96 µM)
MIC (Rhinovirus type 1b): 2 µg/mL (≈ 6.96 µM)
MIC (Rhinovirus type 13): 2 µg/mL (≈ 6.96 µM)
MIC (Rhinovirus 1425): 4 µg/mL (≈ 13.9 µM)
MIC (Rhinovirus type 15; [2]): 1 µg/mL (≈ 3.48 µM)
MIC (Rhinovirus type 5): 2 µg/mL (≈ 6.96 µM)
MIC (Rhinovirus type 3; [2]): 1 µg/mL (≈ 3.48 µM)
MIC (Rhinovirus type 51; [2]): 2 µg/mL (≈ 6.96 µM)
MIC (Rhinovirus 6579): 2 µg/mL (≈ 6.96 µM)
MIC (Rhinovirus type 1A; [2]): 1 µg/mL (≈ 3.48 µM)
MIC (Rhinovirus type 14; [2]): 1 µg/mL (≈ 3.48 µM)
MIC (Rhinovirus 998; [2]): 1 µg/mL (≈ 3.48 µM)
MIC (Rhinovirus 1492; [2]): 2 µg/mL (≈ 6.96 µM)
MIC (Rhinovirus type 39; [2]): 1 µg/mL (≈ 3.48 µM)
MIC (Rhinovirus 4005): 2 µg/mL (≈ 6.96 µM)

CC(=O)Nc1nn(C)c2c1sc1ccccc12 [Example 65, N-(1-methyl-1H-(1)benzothieno[3,2-c]pyrazol-3-yl)-acetamide]
MIC (Rhinovirus 1662): 10 µg/mL (≈ 40.8 µM)
MIC (Rhinovirus type 41): 2 µg/mL (≈ 8.15 µM)
MIC (Rhinovirus type 2): 4 µg/mL (≈ 16.3 µM)
MIC (Rhinovirus type 1b): 6 µg/mL (≈ 24.5 µM)
MIC (Rhinovirus type 13): 5 µg/mL (≈ 20.4 µM)
MIC (Rhinovirus 1425): 2 µg/mL (≈ 8.15 µM)
MIC (Rhinovirus type 15; [2]): 5 µg/mL (≈ 20.4 µM)
MIC (Rhinovirus type 5): 4 µg/mL (≈ 16.3 µM)
MIC (Rhinovirus type 3; [2]): 4 µg/mL (≈ 16.3 µM)
MIC (Rhinovirus type 51; [2]): 8 µg/mL (≈ 32.6 µM)
MIC (Rhinovirus 6579): 5 µg/mL (≈ 20.4 µM)
MIC (Rhinovirus type 1A; [2]): 8 µg/mL (≈ 32.6 µM)
MIC (Rhinovirus type 14; [2]): 8 µg/mL (≈ 32.6 µM)
MIC (Rhinovirus 998; [2]): 8 µg/mL (≈ 32.6 µM)
MIC (Rhinovirus 1492; [2]): 8 µg/mL (≈ 32.6 µM)
MIC (Rhinovirus type 39; [2]): 8 µg/mL (≈ 32.6 µM)
MIC (Rhinovirus 4005): 2 µg/mL (≈ 8.15 µM)

Cn1nc(NC(=O)c2cccnc2)c2sc3ccccc3c21 [Example 66]
MIC (Rhinovirus 1662): 8 µg/mL (≈ 25.9 µM)
MIC (Rhinovirus type 41): 2 µg/mL (≈ 6.49 µM)
MIC (Rhinovirus type 2): 2 µg/mL (≈ 6.49 µM)
MIC (Rhinovirus type 1b): 2 µg/mL (≈ 6.49 µM)
MIC (Rhinovirus type 13): 2 µg/mL (≈ 6.49 µM)
MIC (Rhinovirus 1425): 2 µg/mL (≈ 6.49 µM)
MIC (Rhinovirus type 15; [2]): 4 µg/mL (≈ 13 µM)
MIC (Rhinovirus type 5): 2 µg/mL (≈ 6.49 µM)
MIC (Rhinovirus type 3; [2]): 6 µg/mL (≈ 19.5 µM)
MIC (Rhinovirus type 51; [2]): 6 µg/mL (≈ 19.5 µM)
MIC (Rhinovirus 6579): 2 µg/mL (≈ 6.49 µM)
MIC (Rhinovirus type 1A; [2]): 5 µg/mL (≈ 16.2 µM)
MIC (Rhinovirus type 14; [2]): 8 µg/mL (≈ 25.9 µM)
MIC (Rhinovirus 998; [2]): 2 µg/mL (≈ 6.49 µM)
MIC (Rhinovirus 1492; [2]): 6 µg/mL (≈ 19.5 µM)
MIC (Rhinovirus type 39; [2]): 2 µg/mL (≈ 6.49 µM)
MIC (Rhinovirus 4005): 2 µg/mL (≈ 6.49 µM)

O=c1[nH]c(=O)n([C@H]2C[C@H](O)[C@@H](CO)O2)cc1I [Idoxuridine]
Effectiveness in herpes simplex keratitis (herpes simplex keratitis): effective for the topical treatment of herpes simplex keratitis

CN1C(=O)/C(=N\NC(N)=S)c2ccccc21 [Methisazone]
Effectiveness for prevention of smallpox (smallpox): effective for the prevention of smallpox

Nc1ncnc2c1ncn2[C@@H]1O[C@H](CO)[C@@H](O)[C@@H]1O [adenine arabinoside]
Effectiveness in herpes simplex keratitis (herpes simplex keratitis): effective for the topical treatment of herpes simplex keratitis
